From patent US9351955B2, “Compounds and pharmaceutical compositions thereof for the treatment of cystic fibrosis” (Galapagos NV, priority 2013, dated 2016)
Values joined by “and” are separate entries in the source; they are usually repeats but may differ in a detail not shown here. Equal values may be shown once.

How the values were obtained:
CFTR G551D mutant = biological target: T1, CFTR G551D mutant (Homo sapiens, UniProt P13569, G551D); experiment: YFP-halide influx assay for the CFTR-G551D mutation (HEK293 cells); format: cell-based; conditions: HEK293 cells expressing CFTR G551D and YFP reporter; forskolin 10.67 μM; read-out: EC50 measured by YFP-halide influx assay for the CFTR-G551D
T1 construct: expressed in transfected cells; host or cells: HEK293 (reverse transfection with plasmids)
T1 sequence (P13569 whole entry G551D): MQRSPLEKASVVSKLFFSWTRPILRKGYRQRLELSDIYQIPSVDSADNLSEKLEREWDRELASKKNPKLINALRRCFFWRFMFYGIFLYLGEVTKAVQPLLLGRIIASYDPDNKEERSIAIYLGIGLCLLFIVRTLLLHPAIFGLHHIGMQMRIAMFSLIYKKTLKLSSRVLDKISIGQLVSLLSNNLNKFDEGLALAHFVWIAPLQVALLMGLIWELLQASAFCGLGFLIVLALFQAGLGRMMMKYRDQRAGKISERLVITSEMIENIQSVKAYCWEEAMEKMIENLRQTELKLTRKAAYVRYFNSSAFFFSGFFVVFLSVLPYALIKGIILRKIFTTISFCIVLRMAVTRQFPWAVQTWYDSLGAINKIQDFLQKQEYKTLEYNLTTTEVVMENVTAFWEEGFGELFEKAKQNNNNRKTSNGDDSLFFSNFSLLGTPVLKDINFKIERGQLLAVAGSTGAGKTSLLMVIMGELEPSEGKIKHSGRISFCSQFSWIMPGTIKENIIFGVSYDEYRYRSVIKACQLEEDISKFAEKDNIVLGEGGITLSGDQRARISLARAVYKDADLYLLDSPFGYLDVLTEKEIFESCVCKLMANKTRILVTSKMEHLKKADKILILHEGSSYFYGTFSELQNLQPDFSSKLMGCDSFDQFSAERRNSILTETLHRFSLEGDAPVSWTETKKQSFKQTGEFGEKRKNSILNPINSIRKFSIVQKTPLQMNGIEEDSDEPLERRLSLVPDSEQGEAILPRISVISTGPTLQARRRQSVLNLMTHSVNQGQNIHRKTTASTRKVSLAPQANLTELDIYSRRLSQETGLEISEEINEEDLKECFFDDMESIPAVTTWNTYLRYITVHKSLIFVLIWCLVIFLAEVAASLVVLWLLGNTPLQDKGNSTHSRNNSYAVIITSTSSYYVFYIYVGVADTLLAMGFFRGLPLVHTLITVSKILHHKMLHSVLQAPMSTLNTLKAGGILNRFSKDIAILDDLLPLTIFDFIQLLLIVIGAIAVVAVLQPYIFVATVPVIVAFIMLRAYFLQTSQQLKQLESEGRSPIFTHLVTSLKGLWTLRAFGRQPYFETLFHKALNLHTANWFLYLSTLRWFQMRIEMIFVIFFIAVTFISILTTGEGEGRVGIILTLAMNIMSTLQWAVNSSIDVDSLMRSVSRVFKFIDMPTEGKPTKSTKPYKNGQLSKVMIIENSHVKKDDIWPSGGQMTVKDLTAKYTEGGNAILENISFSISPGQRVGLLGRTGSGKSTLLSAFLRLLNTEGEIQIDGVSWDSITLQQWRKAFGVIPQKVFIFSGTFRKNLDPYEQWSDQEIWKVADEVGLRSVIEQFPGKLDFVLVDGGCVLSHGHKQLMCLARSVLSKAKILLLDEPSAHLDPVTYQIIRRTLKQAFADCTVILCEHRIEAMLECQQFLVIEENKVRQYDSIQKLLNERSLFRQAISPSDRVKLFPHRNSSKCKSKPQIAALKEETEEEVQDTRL
Outline: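 HEK293 cells reverse-transfected with CFTR G551D and halide-sensitive YFP, expressed 24 h at 37 °C. Iodide-induced fluorescence quench recorded for 7 s after I^− injection; response as 1−F/F0, EC50 from concentration plot.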

CFTR ΔF508 = biological target: T2, CFTR ΔF508 (Homo sapiens, UniProt P13569, DEL508-508); experiment: TECC assay, primary bronchial epithelial cells from CF patients homozygous for CFTR ΔF508; format: cell-based; conditions: for ΔIsc / Current increase: TECC assay; for Current increase: difference between ΔIsc with compound and ΔIsc DMSO (baseline); for EC50: primary bronchial epithelial cells, CFTR ΔF508, several values in a cell = repeat determinations
T2 construct: host or cells: primary bronchial epithelial cells from CF patients homozygous for ΔF508, pre-treated with VX809
T2 sequence (P13569 with tags, fused parts or gaps DEL508-508): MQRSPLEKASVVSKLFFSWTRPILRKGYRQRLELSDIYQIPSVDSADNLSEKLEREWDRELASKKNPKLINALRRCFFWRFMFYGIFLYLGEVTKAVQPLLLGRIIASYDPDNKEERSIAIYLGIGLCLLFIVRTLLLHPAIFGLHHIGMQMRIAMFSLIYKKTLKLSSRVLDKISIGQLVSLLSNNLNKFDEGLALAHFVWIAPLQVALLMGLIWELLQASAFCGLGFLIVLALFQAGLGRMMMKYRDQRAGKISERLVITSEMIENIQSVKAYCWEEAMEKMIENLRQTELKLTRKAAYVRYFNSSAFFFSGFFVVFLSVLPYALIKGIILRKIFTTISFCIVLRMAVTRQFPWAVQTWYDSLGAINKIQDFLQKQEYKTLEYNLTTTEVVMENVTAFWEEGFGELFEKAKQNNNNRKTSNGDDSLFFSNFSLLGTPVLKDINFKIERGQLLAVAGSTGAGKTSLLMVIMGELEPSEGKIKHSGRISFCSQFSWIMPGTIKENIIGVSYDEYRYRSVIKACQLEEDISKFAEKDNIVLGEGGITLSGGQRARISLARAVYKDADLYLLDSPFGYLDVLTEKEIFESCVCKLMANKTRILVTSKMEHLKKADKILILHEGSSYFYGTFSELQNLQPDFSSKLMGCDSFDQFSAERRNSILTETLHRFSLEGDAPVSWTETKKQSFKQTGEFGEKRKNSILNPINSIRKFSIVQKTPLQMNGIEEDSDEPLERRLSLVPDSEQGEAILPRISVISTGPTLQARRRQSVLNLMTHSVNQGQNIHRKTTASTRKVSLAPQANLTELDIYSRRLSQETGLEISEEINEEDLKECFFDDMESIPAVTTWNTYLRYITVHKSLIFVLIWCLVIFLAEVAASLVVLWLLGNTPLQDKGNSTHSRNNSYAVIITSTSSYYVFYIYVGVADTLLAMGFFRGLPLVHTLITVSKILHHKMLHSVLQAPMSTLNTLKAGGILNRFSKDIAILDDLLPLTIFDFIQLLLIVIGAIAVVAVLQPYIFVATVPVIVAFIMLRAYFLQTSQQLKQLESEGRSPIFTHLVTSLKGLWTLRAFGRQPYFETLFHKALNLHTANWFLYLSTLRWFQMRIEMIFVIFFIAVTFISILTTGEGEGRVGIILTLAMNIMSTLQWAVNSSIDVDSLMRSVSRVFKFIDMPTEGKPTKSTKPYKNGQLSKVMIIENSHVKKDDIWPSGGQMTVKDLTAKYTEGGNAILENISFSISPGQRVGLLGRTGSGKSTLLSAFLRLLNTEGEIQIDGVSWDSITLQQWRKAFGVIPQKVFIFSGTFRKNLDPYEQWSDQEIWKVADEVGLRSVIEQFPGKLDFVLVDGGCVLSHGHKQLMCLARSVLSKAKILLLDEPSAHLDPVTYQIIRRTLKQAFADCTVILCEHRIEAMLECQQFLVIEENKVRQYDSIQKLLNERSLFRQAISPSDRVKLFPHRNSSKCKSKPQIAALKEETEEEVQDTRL
Protocol: 7.2.1. Primary Bronchial Epithelial Cells Protocol
The TECC (Tranepithelial Clamp Circuit, EP-design) assay measures the functionality of the cystic fibrosis Transmembrane Conductance regulator (CFTR) by measuring the short circuit current (ISC) generated over the basolateral and apical membrane of lung epithelial cells. In TECC the transepithelial potential PD and transepithelial resistance (Rt) are measured in an open circuit and transformed to ISC using Ohm's law. 24 wells can be measured simultaneously allowing a higher throughput compared to Ussing chambers.
For this purpose, bronchial epithelial cells isolated from CF patients homozygous for the CFTR ΔF508 mutation (hAEC-CF, Epithelix) are plated on type IV collagen-coated Transwell supports (Costar). Human airway epithelia are generated by provision of an air-liquid interface for 21 days to form well-differentiated polarized cultures that resemble in vivo pseudo-stratified ciliated epithelium (Fulcher et al., 2005). In the case of the homozygous ΔF508 CFTR samples, the differentiated cells are treated with 3 μM VX809 (2626 South Loop West, Suite 225, Houston, Tex. 77054 USA, Cat n#51565) to allow sufficient expression of properly folded CFTR protein on the membrane (48 hours basolateral treatment and 24 hours apical treatment), prior to electrophysiological recordings. […] G551D/ΔF508, differentiated cells are used as such for the recordings.
Information on the compounds can be retrieved on the homozygous ΔF508 CFTR samples looking at increased CFTR activity when compounds are added in an acute mode or in a chronic mode. On G551D/ΔF508 CFTR heterozygous samples compounds are added in an acute mode to the differentiated cells.
For the acute mode, for electrophysiological recording, the human airway epithelia are mounted in the TECC heating plate for electrophysiological measurement and kept at 37° C. The epithelia are bathed in a NaCl-Ringer solution (120 mM NaCl, 25 mM NaHCO3, 1.2 mM CaCl2, 1.2 mM MgCl2, 0.8 mM KH2PO4, 0.8 mM K2HPO4, pH 7.4, 5 mM glucose) on both the basolateral and apical sides. Apical amiloride is used to inhibit the endogenous ENaC currents while forkolin is applied on both apical and basolateral side to stimulate CFTR. After forskolin triggering, compounds are added on both sides to test their potential for increasing CFTR gating. Measurements are done during a 20 minute timeframe with recordings every 2 minutes. The increase in ISC is used as a measure for the increased CFTR activity, EC50 values can be generated by measuring impact of different concentrations of compound on ISC on primary cells, for this purpose each transwell is treated with a different compound concentration. Inh-172, an inhibitor specific for CFTR, is used to test the specificity of the tested compounds.
For the chronic mode, the differentiated cells are treated with 3 μM VX809 (2626 South Loop West, Suite 225, Houston, Tex. 77054 USA, Cat n#51565) and potentiator compounds at different concentrations (48 hours basolateral treatment and 24 hours apical treatment), prior to electrophysiological recordings. For electrophysiological recording, the human airway epithelia are mounted in the TECC heating plate for electrophysiological measurement and kept at 37° C. […]

Structure (SMILES) | EC50 (CFTR G551D mutant) [nM] | ΔIsc (CFTR ΔF508; compound at 50 nM (Table XV)) [μA/cm^2] | ΔIsc (CFTR ΔF508; compound at 50 nM (Table XVI)) [μA/cm^2] | Current increase (CFTR ΔF508; compound at 50 nM) [μA/cm^2] | ΔIsc (CFTR ΔF508; compound at 100 nM (Table XVI)) [μA/cm^2] | ΔIsc (CFTR ΔF508; compound at 200 nM (Table XVI)) [μA/cm^2] | ΔIsc (CFTR ΔF508; compound at 3 μM) [μA/cm^2] | Current increase (CFTR ΔF508; compound at 3 μM) [μA/cm^2] | activity on the CFTR protein in TECC assay (ΔISC vs DMSO baseline) (CFTR ΔF508; at 3 μM, or 50 nM, or 50/100/200 nM) | EC50 (CFTR ΔF508)
CC1(C)Cc2c(sc(NC(=O)c3ccn[nH]3)c2C(N)=O)C(C)(C)O1 [Compound 2, N-(3-carbamoyl-5,5,7,7-tetramethyl-5,7-dihydro-4H-thieno[2,3-c]pyran-2-yl)-1H-pyrazole-5-carboxamide] | 500 | 4.5996 | 4.5996 | 4.9244 | 4.9327 | 5.0457 | 10.9207 | 11.6634 | shows an activity | 37 nM
CC1(C)Cc2c(sc(NC(=O)C3(O)CC3)c2C(N)=O)C(C)(C)O1 [Compound 4, 2-(1-hydroxycyclopropanecarboxamido)-5,5,7,7-tetramethyl-5,7-dihydro-4H-thieno[2,3-c]pyran-3-carboxamide] | 1340 | – | – | – | – | – | 4.6728 | 5.1939 | – | –
CC1(C)Cc2c(sc(NC(=O)C3(CO)CC3)c2C(N)=O)C(C)(C)O1 [Compound 9, 2-(1-(hydroxymethyl)cyclopropanecarboxamido)-5,5,7,7-tetramethyl-5,7-dihydro-4H-thieno[2,3-c]pyran-3-carboxamide] | 1000 | – | – | – | – | – | – | – | – | 237 nM and 65 nM
CC1(C)Cc2c(sc(NC(=O)C(C)(C)CO)c2C(N)=O)C(C)(C)O1 [Compound 10, 2-(3-hydroxy-2,2-dimethylpropanamido)-5,5,7,7-tetramethyl-5,7-dihydro-4H-thieno[2,3-c]pyran-3-carboxamide] | 2650 | – | – | – | – | – | 3.9356 | 4.4567 | – | –
